Measurements reported in patent US20170312253A1 (The Third Affiliated Hospital, Third Military Medical …, priority 2014, published 2017).

Legend:
Gsk-3β = Gsk-3β (Homo sapiens, UniProt P49841); experiment: In vitro test of Gsk-3β activities
Tau protein = experiment: Western blot of phosphorylated Tau protein; type: in vivo; settings: AD mice
Procedure: APPswe/PS1DE9 (AD) transgenic mice were purchased from Jackson Laboratory, USA (No. 005864), raised in the SPF grade animal house of The Third Affiliated Hospital of The Third Military Medical University. All the processes and correlated experiments applied to the mice were approved and filed with the Animal Ethics Committee of the Third Military Medical University. […] Alternatively, the daily dose for the prophylactic group may be 6.4 mg/kg, and the daily dose for the treatment group may be 12.8 mg/kg. […]
The enzymes related with Aβ formation and degradation their molecule levels, the levels of hyperphosphprylated Tau proteins, and the levels of synaptic plasticity correlated proteins were all detected with Western blot. […] The blotting was detected with the following antibodies: APP C terminal antibody (171610, Millipore), BACE1 antibody (Millipore), Aβ antibody (6E10, Abcam), Nepriiysin antibody (Millipore), RAGE antibody (Millipore), LRP antibody (5A6, Calbiochem), IDE antibody (epitomics), phosphorylated Tau protein antibody, including pS396 (Signalway), pT231 (Signalway), pS199 (epitomics), pS262 (Abcam), SNAP25 antibody (Millipore), Synaptophysin antibody (Millipore), Synapsin I antibody (Millipore), VAMP1 antibody (Millipore), PSD95 antibody (Millipore), F-actin antibody (Actin) (Sigma-Aldrich). […]

Sequence of Gsk-3β (P49841 whole entry, species assumed): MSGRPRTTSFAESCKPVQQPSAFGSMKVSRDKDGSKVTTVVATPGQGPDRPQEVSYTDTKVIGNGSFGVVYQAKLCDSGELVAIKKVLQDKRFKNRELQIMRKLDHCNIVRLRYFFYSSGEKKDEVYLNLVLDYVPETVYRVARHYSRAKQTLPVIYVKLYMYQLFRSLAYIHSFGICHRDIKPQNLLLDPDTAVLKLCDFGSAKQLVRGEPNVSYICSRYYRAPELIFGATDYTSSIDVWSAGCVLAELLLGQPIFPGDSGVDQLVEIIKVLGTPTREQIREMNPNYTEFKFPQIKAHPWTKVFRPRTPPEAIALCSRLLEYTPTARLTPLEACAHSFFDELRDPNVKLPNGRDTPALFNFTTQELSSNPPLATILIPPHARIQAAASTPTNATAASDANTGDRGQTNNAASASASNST

Gsk-3β activities in vitro (Gsk-3β): inhibits the Gsk-3β activities
Structure (SMILES): CC1=NN(c2ccccc2)C(=O)C1 [Edaravone, 3-methyl-1-phenyl-2-pyrazolin-5-one]
phosphorylation level of Tau protein (Tau protein): reduce the phosphorylation level of Tau protein at multiple pathological sites
